{"source": "patent US9718835B2", "about": "(China Medical University Hospital, priority 2013, dated 2017)", "key": {"Topo I": {"target": "T1, Topo I (Homo sapiens, UniProt P11387)", "T1 sequence (P11387 1-765)": "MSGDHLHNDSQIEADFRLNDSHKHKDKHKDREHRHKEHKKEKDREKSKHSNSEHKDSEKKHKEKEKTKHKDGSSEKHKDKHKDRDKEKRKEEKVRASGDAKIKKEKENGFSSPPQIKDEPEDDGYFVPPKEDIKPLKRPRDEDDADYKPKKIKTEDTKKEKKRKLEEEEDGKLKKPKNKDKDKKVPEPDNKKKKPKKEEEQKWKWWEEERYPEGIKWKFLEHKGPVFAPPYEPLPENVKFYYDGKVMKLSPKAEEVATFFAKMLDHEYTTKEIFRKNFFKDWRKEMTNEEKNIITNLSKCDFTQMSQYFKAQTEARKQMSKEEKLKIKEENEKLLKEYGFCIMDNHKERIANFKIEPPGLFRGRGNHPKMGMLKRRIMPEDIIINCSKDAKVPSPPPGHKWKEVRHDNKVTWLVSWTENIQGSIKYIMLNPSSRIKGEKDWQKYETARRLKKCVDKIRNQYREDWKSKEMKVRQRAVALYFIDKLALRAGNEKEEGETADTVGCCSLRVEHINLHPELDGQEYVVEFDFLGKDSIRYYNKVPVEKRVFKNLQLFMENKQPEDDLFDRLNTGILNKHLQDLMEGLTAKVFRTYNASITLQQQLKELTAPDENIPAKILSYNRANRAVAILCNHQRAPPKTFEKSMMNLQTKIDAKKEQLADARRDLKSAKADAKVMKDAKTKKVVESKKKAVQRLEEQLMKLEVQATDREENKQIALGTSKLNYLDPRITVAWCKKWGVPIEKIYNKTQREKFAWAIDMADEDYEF", "experiment": "Topo I activity assay, nuclear extracts of treated A-549 cells, supercoiled DNA", "assay_type": "cell-based", "design": "Nuclear extracts from 9a-treated A-549 cells were incubated with supercoiled DNA (for Topo I); endogenous in cells; host or cells: A-549", "protocol": "(§1) First, we determined the effect of 9a on cell cycle distribution using flow cytometry analysis. […] Because it has been shown that 1-Topo I-DNA covalent complexes enhance the transcription-dependent degradation of Topo I via a 26S proteasome pathway,^32 the effects of 9a on the expression levels of Topo I and Topo II were investigated.\n(§2) Topo I activity test was performed using an assay kit (TopoGEN) according to the manufacturer's instructions. Nuclear extracts from 9a-treated A-549 cells were incubated with supercoiled DNA (for Topo I) or catenated kDNA (for Topo II) for 30 min at 37° C. Reaction mixture was separated by is 1% agarose gel in 1×TAE buffer. The gel was stained with ethidium bromide and photographed using Gel Doc XR (Bio-Rad)."}, "[1]": {"target": "T2, recombinant human Topoisomerase I (Homo sapiens, UniProt P11387)", "T2 construct": "purchased TopoGEN", "T2 sequence (P11387 1-765)": "T1 sequence (P11387 1-765)", "experiment": "Topoisomerase I activity assay in a cell-free system", "assay_type": "biochemical", "conditions": "purified recombinant human Topo I", "protocol": "Inhibition of Topo I activity by 9a in a cell-free system. A 1-delivative with an esterified 20-hydroxy group is expected to be activated by digestion with carboxylesterases. […] We authenticated the inhibitory effect of 9a against Topo I in a dose-dependent manner Thus, we confirmed that 9a is a new class of Topo I inhibitor.\nOne unit of recombinant human Topoisomerase I enzyme (TopoGEN) was pre-incubated for 20 min at 37° C. with vehicle, 9a, 1, 3, or SN-38 in a final volume of 20 μL reaction buffer (10 mM Tris-HCl, pH 7.9, 1 mM EDTA, 150 mM NaCl, 0.1% BSA, 0.1 mM spermidine, 5% glycerol) was then incubated with 250 ng of supercoiled plasmid DNA for 20 min. The supercoiled, relaxed, or nicked DNA was separated by 1% agarose gel in 1×TAE (Tris-Acetate-EDTA) buffer. Ethidium bromide stained agarose gel was photographed using Gel Doc XR (Bio-Rad)."}, "[2]": {"conditions": "i.p.; cited from earlier work"}, "[3]": {"tested_on": "DU-145 (hormone-insensitive prostate cancer)", "experiment": "Sulforhodamine B cytotoxicity assay, DU-145", "assay_type": "cell-based, human", "conditions": "Homo sapiens, DU-145; Table 1; 72 h; average ± SD", "protocol": "(§3) The 12 novel 1-derivatives 9a-l were evaluated for in vitro antiproliferative activity against four human tumor cell lines, KB (nasopharyngeal), A-549 (lung), DU-145 (prostate), and KBvin (MDR KB subline), by using a sulforhodamine B colorimetric assay with triplicate experiments.^30 Compounds 1 and 3 were used as controls.\n(§4) The human tumor cell lines used in this manuscript were A-549 (lung carcinoma), MDA-MB-231 (triple-negative breast cancer), DU-145 (hormone-insensitive prostate cancer), KB (originally isolated from epidermoid carcinoma of the nasopharynx), KBvin (vincristine-resistant KB subline), and HCT116 (colorectal adenocarcinoma). These cell lines were obtained from the Lineberger Comprehensive Cancer Center (UNC-CH) or from ATCC (Manassas, Va.), except KBvin, which was a generous gift of Professor Y.-C. Cheng (Yale University). All cell lines were maintained and assayed in RPMI-1640 medium containing 2 mM L-glutamine and 25 mM HEPES (HyClone), supplemented with 10% heat-inactivated fetal bovine serum (HyClone), 100 μg/mL streptomycin, 100 IU/mL penicillin, and 0.25 μg/mL amphotericin B (Cellgro) in a humidified atmosphere containing 5% CO2 in air. Compound stock solutions were prepared at 10 mM in DMSO and diluted with culture medium with the final DMSO concentration ≦0.01% (v/v), a concentration without effect on cell growth. The 4-6×10^3 cells/well were cultured for 72 h with various concentrations of test compounds in 96-well plate at 37° C. […] Each assay was performed in triplicate with duplicated samples."}, "Topo II": {"tested_on": "Topo II", "experiment": "Topo II activity assay, nuclear extracts of treated A-549 cells, catenated kDNA", "assay_type": "cell-based, human", "text": "as §1, with “investigated. […] Compound 9a acts directly on Topo I and results in the accumulation of covalent Topo I-DNA complexes followed by proteasomal Topo I degradation, which is the same effect as 1 and contributes to 9a's cytotoxicity.” for “investigated.”\nas §2"}, "[4]": {"tested_on": "human colorectal adenocarcinoma HCT116 xenograft", "experiment": "Xenograft model antitumor assay", "assay_type": "in vivo, nu/nu mice", "protocol": "Xenograft model antitumor assay using human colorectal adenocarcinoma cell line HCT116 was performed according to the regimen in Table 2. The 31-day study utilized four groups of mice (n=8) bearing established HCT116 xenograft with mean volumes of approximately 200 mm^3 on day one. The tumor growth and animal body weight change for each treatment group were measured three times per week (FIGS. 2 and 3). Compound 9a was administered intravenously (i.v.) for 7 days and then intraperitoneally (i.p.) at 5 and 10 mg/kg once every day (QD) to the end.\nFive- to six-week-old female nu/nu mice (National Laboratory Animal Center, Taiwan) were inoculated subcutaneously with 2×10^6 human colorectal adenocarcinoma HCT116 cells in flank. When the grafted tumor volume reached the average volume of 200 mm^3, mice were randomly divided into four groups (n=8). Vehicle control and compound 9a at 5 or 10 mg/kg were administered i.v. once a day (QD) for 7 days and then i.p. once a day to the end. As an experimental control group, 100 mg/kg of compound 3 was administered i.v. once a week (QWK) to the end. The length (L) and width (W) of graft was measured every 3 to 4 days to the end, and the tumor volume was calculated as LW^2/2. Results were evaluated statistically by Student's t-test. This study was approved by the Institutional Animal Care and Use Committee (IACUC) of the National Taiwan University (Taipei, Taiwan), and was performed according to the institutional guidelines."}, "[5]": {"tested_on": "KB (epidermoid carcinoma of the nasopharynx)", "experiment": "Sulforhodamine B cytotoxicity assay, KB", "assay_type": "cell-based, human", "conditions": "Homo sapiens", "protocol": "as §3, §4"}, "[6]": {"tested_on": "KBvin (vincristine-resistant KB subline)", "experiment": "Sulforhodamine B cytotoxicity assay, KBvin", "assay_type": "cell-based, human", "conditions": "Homo sapiens, KBVIN", "text": "as §4, with “Compound stock solutions were prepared at 10 mM in DMSO and diluted with culture medium with the final DMSO concentration ≦0.01% (v/v), a concentration without effect on cell growth.” left out"}, "A-549 (lung carcinoma)": {"tested_on": "A-549 (lung carcinoma)", "experiment": "Sulforhodamine B cytotoxicity assay, A-549", "assay_type": "cell-based, human", "conditions": "Homo sapiens, A549; Table 1; 72 h; average ± SD", "text": "as §4, with “Compound stock solutions were prepared at 10 mM in DMSO and diluted with culture medium with the final DMSO concentration ≦0.01% (v/v), a concentration without effect on cell growth.” left out"}, "[7]": {"tested_on": "MDA-MB-231 (triple-negative breast cancer)", "experiment": "Sulforhodamine B cytotoxicity assay, MDA-MB-231", "assay_type": "cell-based", "conditions": "Homo sapiens, Table 4, read-out: IC50 (Average ± SD) MDA-MB-231", "text": "as §4, with “Compound stock solutions were prepared at 10 mM in DMSO and diluted with culture medium with the final DMSO concentration ≦0.01% (v/v), a concentration without effect on cell growth.” left out"}}, "note": "Where two headings read alike, the source gives them in different places."}
{"smiles": "CC[C@@]1(O)C(=O)OCc2c1cc1n(c2=O)Cc2cc3ccccc3nc2-1", "note": "[Compound 1, Camptothecin, reference compound]", "values": [{"measurement": "Topo I-mediated relaxation of supercoiled DNA", "setting": "Topo I", "value": "inhibited the relaxation of supercoiled DNA"}, {"measurement": "Inhibition of Topo I activity (relaxation/nicking of supercoiled plasmid DNA)", "setting": "[1]", "value": "inhibited Topo I activity"}, {"measurement": "LD50", "setting": "[2]", "value": 56.2, "unit": "mg/kg"}, {"measurement": "IC50", "setting": "[3]", "value": "29 ± 2.5", "unit": "nM"}, {"measurement": "Topo II decatenation of kDNA", "setting": "Topo II", "value": "failed to decatenate kineoplast DNA"}]}
{"smiles": "CCc1c2c(nc3ccc(OC(=O)N4CCC(N5CCCCC5)CC4)cc13)-c1cc3c(c(=O)n1C2)COC(=O)[C@]3(O)CC", "note": "[Compound 3, irinotecan, reference compound]", "values": [{"measurement": "mice showing complete regression", "setting": "[4]; 100 mg/kg QWK i.v., n=8", "value": "three mice"}, {"measurement": "antitumor activity in vivo (tumor growth)", "setting": "[4]; 100 mg/kg QWK, P<0.001", "value": "exhibited antitumor activity"}, {"measurement": "Inhibition of Topo I activity (relaxation/nicking of supercoiled plasmid DNA)", "setting": "[1]", "value": "no inhibitory effect on Topo I activity"}, {"measurement": "IC50", "setting": "[5]; Table 1, 72 h, average ± SD, read-out: IC50 KB", "value": "9800 ± 480", "unit": "nM"}, {"measurement": "LD50", "setting": "[2]", "value": 177.5, "unit": "mg/kg"}, {"measurement": "IC50", "setting": "[3]", "value": "9300 ± 610", "unit": "nM"}, {"measurement": "IC50", "setting": "[6]; Table 1, 72 h, average ± SD, read-out: IC50 KBvin", "value": "> 20000", "unit": "nM"}, {"measurement": "IC50", "setting": "A-549 (lung carcinoma)", "value": "9500 ± 110", "unit": "nM"}]}
{"smiles": "CC[C@@]1(O)C(=O)OCc2c1cc1n(c2=O)Cc2cc3c(CN(C)C)c(O)ccc3nc2-1", "note": "[Compound 2, topotecan, reference compound]", "values": [{"measurement": "IC50", "setting": "[5]; Table 4, read-out: IC50 (Average ± SD) KB", "value": "63 ± 4.2", "unit": "nM"}, {"measurement": "IC50", "setting": "[7]", "value": "100 ± 5.5", "unit": "nM"}, {"measurement": "IC50", "setting": "[6]; Table 4, read-out: IC50 (Average ± SD) KBvin", "value": "400 ± 21", "unit": "nM"}]}
{"smiles": "COc1cc([C@@H]2c3cc4c(cc3[C@@H](O[C@@H]3O[C@@H]5CO[C@@H](C)O[C@H]5[C@H](O)[C@H]3O)[C@H]3COC(=O)[C@H]23)OCO4)cc(OC)c1O", "note": "[etoposide]", "values": [{"measurement": "Topo II decatenation of kDNA", "setting": "Topo II", "value": "effectively blocked the decatenation of kDNA"}]}
